{"source": "patent US8420692B1", "about": "“Heterocyclic and carbonate derivatives of NDGA and their use as new anti-HIV and anti-cancer agents” (The Johns Hopkins University, priority 2006, dated 2013)", "key": {"HSV-2": {"system": "HSV-2", "assay": "Efficacy against HSV-2 in a mouse vaginal model", "format": "in vivo", "settings": "for Toxicity in animals: female mice treated locally with 10 mM", "method": "The efficacies of P4N against HSV-2 in a mouse vaginal model system have been examined. Progestin treated female CF-1 mice (10 per group) were infected with HSV-2 in the absence or presence of P4N (in PBS). At the end of three days, the vaginal lavages were collected from the washings of the vaginal regions. The status of the vaginal HSV-2 infection and replication were examined by their cytopathic effects on cultured human foreskin fibroblast cells. Monitoring and scoring were carried out by three persons independently. […] At 10 mM concentration only 2 of 10 mice were weakly infected."}, "[1]": {"system": "human breast cancer line MCF-7", "assay": "MTT-based cytotoxicity / proliferation assay, MCF-7", "format": "cell-based", "method": "(§1) The cytotoxicity of P4N against Vero cells and human cancer cells HEP3B, HT29 and MCF7 was analyzed using an MTT [3-(4,5-dimethylthiazol-2-yl)-2,5-diphenyltetrazolium bromide]-based assay (Sigma). The absorbance of OD570 was a measurement of formazon crystals solubilized in DMSO from metabolically active cells. Procedures were discussed in Huang R C C, et al. in Antiviral Res 58, 57-64 2003.^10\n(§2) We have previously shown that M4N arrests tumor cells growth at G2-M phase of the cell cycle by reducing the level of Cdc2 protein and kinase activity,^17,18 and induces apoptosis by suppressing survivin gene expression and protein stability and activating the mitochondrial apoptosis pathway.^17 M4N is able to reverse the multidrug resistance by inhibiting the Sp1-regulated MDR1 gene expression and preventing the synthesis of p-glycoprotein (Pgp).^24 To investigate the effect of water soluble NDGA derivative P4N on growth of the transformed cells, four cell lines, Vero cell (African green monkey kidney cells), human liver cancer line Hep3B, colon cancer cell line HT29, and human breast cancer line MCF-7 were selected for testing. The Vero cell line is aneuploid."}, "[2]": {"system": "Vero cell (African green monkey kidney cells)", "assay": "MTT-based cytotoxicity / proliferation assay, Vero", "format": "cell-based", "settings": "48 hrs, 37° C.", "method": "as §1, §2"}, "COS cells": {"system": "COS cells", "assay": "Growth inhibition of untransfected COS cells", "format": "cell-based", "settings": "≦1 μM, FIG. 9", "method": "(§3) FIG. 9: Inhibition of HIV Tat-Regulated transactivation by Compound 5b P4N. The COS cells were co-transfected with a Tat-producing plasmid and a plasmid containing the HIV LTR linked to the SeAP reporter gene. Transfected cells were treated with various concentrations of 5b P4N. After 48 h, aliquots of media were removed and analysis of SeAP activity was performed. The percent inhibition of SeAP activity by 5b P4N ? was calculated in comparison with the percent of growth inhibition of untransfected COS cells by P4N ?"}, "[3]": {"system": "colon cancer cell line HT29", "assay": "MTT-based cytotoxicity / proliferation assay, HT29", "format": "cell-based, human", "method": "as §1, §2"}, "[4]": {"system": "HIV Tat-regulated transactivation", "assay": "cells", "format": "cell-based", "settings": "for Inhibition (%) of HIV Tat-regulated Transactivation in COS Cells: average of three experiments", "method": "as §3, with “The” for “FIG. 9: Inhibition of HIV Tat-Regulated transactivation by Compound 5b P4N. The”\nThe medium used for dilution of compounds and maintenance of cultures during the assay was the same as described above. Cultures were maintained in disposable tissue culture labware at 37° C. in a humidified atmosphere of CO2 (5.0%) in air. Compounds were dissolved as stock solutions in water or dimethyl sulfoxide (DMSO) at the concentration of 10 mM. The stock solutions were diluted with H2O (5a-d) or DMSO (6a,b and 7) and dilute by medium to the desired concentration by a 30-s vortex just before addition into the cell culture. Triplicate cell samples were seeded at density of ˜1.5×10^4 cell per well in Libro 24-well flat-bottom culture dishes (17-mm diameter), which were incubated for 24 h until they reached 50% confluence. The cells were cotransfected by the calcium phosphate procedure with DNA from plasmids pBC12/CMV/t2 (coding for Tat function, 0.20 μg/well) and pBC12/HIV/SeAP (0.40 μg/well). Cells and DNAs were kept in contact for 6.0 h; then the medium was aspirated and replaced by 500 μL of medium containing the test compound. The compound-treated cells were then incubated for additional 48 h. At the end of incubation, an aliquot of cell culture medium was removed and SeAP activities were analyzed by spectrametric method.^20 The sample of culture medium were heated at 65° C. for 5.0 min to inactivate endogenous phosphatases selectively (SeAP is thermal stable). The buffer solution of 2×SeAP (100 μL, 1.0 M diethanolamine, pH 9.8; 0.50 mM MgCl2; 10 mM L-homoarginine) was added to the culture medium sample (100 μL) in a 96-well flat-bottom culture dish (Corning). Then, the substrate solution ([…], 120 mM, p-nitrophenyl phosphate dissolved in 1×SeAP buffer) was dispensed into each well containing the reaction mixture. The absorbance at wavelength 405 nm specific for the hydrolysis product was read at 2.5 min intervals at 37° C. over the course of 60 min on an EL340i microplate reader (Bio-tek Instruments) with 5 s automatic shaking before each reading.\nTwo plasmid constructs^19 were used to test the effect of synthesized NDGA derivatives on Tat-regulated HIV transactivation as described previously.^12,13,19 The plasmid constructs included a cytomegalovirus (CMV) promoter driven tat gene and SP1 regulated HIV LTR promoter driven reporter gene (i.e., SeAP). A standard SeAP assay in the absence of drug was initially run to find out efficiency of transfection."}}, "note": "pIC50: −log10 of the molar value. Where a name gives a salt, the structure may show the parent alone."}
{"compound": "C[C@H](Cc1ccc(OCCN2CCCCC2)c(OCCN2CCCCC2)c1)[C@@H](C)Cc1ccc(OCCN2CCCCC2)c(OCCN2CCCCC2)c1", "note": "[Compound 5b, meso-2,3-Dimethyl-1,4-bis(3,4-[2-(piperidino)ethoxyphenyl])butane Tetrakishydrochloride Salt]", "values": [{"measurement": "Mice weakly infected with HSV-2", "setting": "HSV-2; 10 mM P4N in PBS, local, female CF-1 mice, 10 per group, day 3 vaginal lavage", "result": "2 of 10"}, {"measurement": "Average scale of vaginal HSV-2 infection (cytopathic effect score)", "setting": "HSV-2; 10 mM P4N, 2.43 in the absence of P4N", "result": 0.19}, {"measurement": "Toxicity in animals", "setting": "HSV-2", "result": "no apparent sign of toxicity"}, {"measurement": "Toxicity in animals", "setting": "HSV-2; listed as P4N", "result": "little or no toxicity"}, {"measurement": "pIC50", "setting": "[1]; 48 hrs, 37° C.", "result": 5.85}, {"measurement": "Concentration that effectively eliminates growth of tumor cells", "setting": "[1]; MCF-7, FIG. 11", "result": "< 5", "unit": "µM"}, {"measurement": "Inhibition of rapidly dividing Vero cells", "setting": "[2]; FIG. 11", "result": "extremely effective"}, {"measurement": "Inhibition of stationary phase vero cells", "setting": "[2]; FIG. 11A", "result": "much less so"}, {"measurement": "Effect on the growth of the cos cells", "setting": "COS cells", "result": "no effect"}, {"measurement": "pIC50", "setting": "[3]; 48 hrs, 37° C., read-out: IC50, proliferation of HT-29", "result": 6.10}, {"measurement": "Concentration that effectively eliminates growth of tumor cells", "setting": "[3]; HT29, FIG. 11", "result": "< 5", "unit": "µM"}, {"measurement": "Inhibition (%) of HIV Tat-regulated Transactivation in COS Cells", "setting": "[4]; 0.10 μM", "result": 8.7, "unit": "%"}, {"measurement": "Inhibition (%) of HIV Tat-regulated Transactivation in COS Cells", "setting": "[4]; 0.25 μM", "result": 4.3, "unit": "%"}, {"measurement": "Inhibition (%) of HIV Tat-regulated Transactivation in COS Cells", "setting": "[4]; 0.50 μM", "result": 29.0, "unit": "%"}, {"measurement": "Inhibition (%) of HIV Tat-regulated Transactivation in COS Cells", "setting": "[4]; 1.0 μM", "result": 56.8, "unit": "%"}, {"measurement": "Inhibition (%) of HIV Tat-regulated Transactivation in COS Cells", "setting": "[4]; 2.5 μM", "result": 90.6, "unit": "%"}, {"measurement": "Inhibition (%) of HIV Tat-regulated Transactivation in COS Cells", "setting": "[4]; 5.0 μM", "result": 97.0, "unit": "%"}, {"measurement": "Inhibition (%) of HIV Tat-regulated Transactivation in COS Cells", "setting": "[4]; 10 μM", "result": 99.8, "unit": "%"}, {"measurement": "Inhibition (%) of HIV Tat-regulated Transactivation in COS Cells", "setting": "[4]; 20 μM", "result": 100, "unit": "%"}, {"measurement": "Inhibition (%) of HIV Tat-regulated Transactivation in COS Cells", "setting": "[4]; 40 μM", "result": 100, "unit": "%"}, {"measurement": "Inhibition (%) of HIV Tat-regulated Transactivation in COS Cells", "setting": "[4]; 80 μM", "result": 100, "unit": "%"}, {"measurement": "Inhibition (%) of HIV Tat-regulated Transactivation in COS Cells", "setting": "[4]; 100 μM", "result": 97.7, "unit": "%"}, {"measurement": "pIC50", "setting": "[4]; COS cells, SeAP, mean of triplicate determinations, read-out: IC50, HIV Tat-regulated transactivation", "result": 6.06}, {"measurement": "HIV transactivation at the concentration without effect on cos cell growth", "setting": "[4]; ≦1 μM, FIG. 9", "result": "fully inhibited"}]}
